Results from patent US11667602B2, “Compounds and their use” (AstraZeneca AB, priority 2020, dated 2023).
In brackets after ≈: the same amount, converted by molar mass. Read-outs that look alike come from different tables or passages of the source.

Key:
human RXFP1 = biological target: T1, human RXFP1 (Homo sapiens, UniProt Q9HBX9); test: RXFP1 Hu cAMP (Test A); assay type: cell-based; design: expressed in transfected cells; host or cells: Jump-In T-REx CHO-K1 cells (ThermoFisher), induced with 10 ng/ml doxycycline for 24 h
T1 sequence (Q9HBX9 1-757): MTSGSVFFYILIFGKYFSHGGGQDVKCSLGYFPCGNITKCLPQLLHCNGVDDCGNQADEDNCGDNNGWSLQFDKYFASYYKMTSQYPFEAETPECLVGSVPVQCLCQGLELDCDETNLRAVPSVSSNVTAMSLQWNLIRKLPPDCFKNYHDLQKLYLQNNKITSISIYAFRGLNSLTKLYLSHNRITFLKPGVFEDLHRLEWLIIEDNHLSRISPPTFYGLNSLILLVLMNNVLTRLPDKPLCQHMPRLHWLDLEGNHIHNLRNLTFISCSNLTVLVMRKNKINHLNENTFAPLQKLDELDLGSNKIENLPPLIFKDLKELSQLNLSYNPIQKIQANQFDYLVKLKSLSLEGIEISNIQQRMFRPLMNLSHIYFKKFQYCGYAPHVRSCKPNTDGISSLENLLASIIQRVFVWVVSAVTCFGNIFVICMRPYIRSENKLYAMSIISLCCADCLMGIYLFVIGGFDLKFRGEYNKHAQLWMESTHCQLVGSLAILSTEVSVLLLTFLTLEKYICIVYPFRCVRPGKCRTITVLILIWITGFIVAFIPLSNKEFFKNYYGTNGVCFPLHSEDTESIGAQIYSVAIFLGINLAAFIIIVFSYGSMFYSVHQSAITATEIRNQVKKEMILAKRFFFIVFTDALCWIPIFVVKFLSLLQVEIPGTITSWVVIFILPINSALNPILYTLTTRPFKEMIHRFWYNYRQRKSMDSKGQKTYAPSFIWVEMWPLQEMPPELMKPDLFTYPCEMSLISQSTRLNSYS
Outline: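 CHO-K1 (Jump-In T-REx), RXFP1 induced w/ 10 ng/ml doxycycline 24 h, cryopreserved. 0.5 mM IBMX final. cAMP by HTRF, 2 h RT, std curve.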

[1] = Rat Hepatocyte Stability (Test E); assay type: in vitro ADME; conditions: rat, hepatocytes, geometric mean if run multiple times
Outline: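 Intrinsic clearance in rat hepatocytes, expressed as μl/min/10^6 cells, following the literature integrated DMPK panel method. Repeat determinations combined as geometric mean.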

[2] = Human Liver Microsomal Stability (Test C); assay type: in vitro ADME; conditions: human, liver microsomes
Outline: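 CLint (μl/min/mg protein) derived from compound depletion in human liver microsomes following a published standardized early-DMPK protocol; replicate determinations given as arithmetic mean.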

[3] = Human Hepatocyte Stability (Test D); assay type: in vitro ADME; conditions: human, cryopreserved pooled human hepatocytes (LiverPool 10-Donor), geometric mean if run multiple times
Outline: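 Intrinsic clearance (μL/min/10^6 cells), derived as kV/N from the log-linear loss of parent compound. Compound incubated at 37 °C with cryopreserved pooled human hepatocytes, 0.25×10^6 cells in 0.25 mL L-15; dosing solution 100 μM in acetonitrile. Singlicate incubations, cassette LC-MS; repeats reported as geometric mean.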

Solubility (Test F) = assay type: physicochemical; conditions: arithmetic mean if run multiple times
Method: The assay was conducted according to the Solubility Assay described in pages 164-167 of Wernevik, J. et al., “A Fully Integrated Assay Panel for Early Drug Metabolism and Pharmacokinetics Profiling”, Assay and Drug Development Technologies, 2020, 18(4), 157-179. Data are reported in Table 36 as solubility ([…]. Where the assay was run multiple times for the same compound, the arithmetic mean is reported.

[4] = Human Plasma Protein Binding (Test B); assay type: in vitro ADME; conditions: fraction unbound (fu)
Outline: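 Values given as % free (fu) in human plasma, using the method of Wernevik et al. (2020). For compounds tested more than once, the arithmetic mean is given.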

[5] = RXFP1 Hu cAMP, read-out: Test A EC50

SMILES	Test A Sinf (human RXFP1; RXFP1 Hu cAMP)	EC50 (human RXFP1; [5])	hepatocyte CLint [1]	microsomal CLint [2]	hepatocyte CLint at 1 µM [3]	solubility (Solubility (Test F))	Test B Human Plasma Protein Binding (% free) [4]	EC50 (human RXFP1; Test A EC50, RXFP1 Hu cAMP)
COc1cc(F)c(OC2CCC(C)(C(=O)O)CC2)cc1C(=O)NC1CC(OC)CC1C(=O)Nc1cccc(S(=O)(=O)C(F)(F)F)c1 (single isomer, unassigned) [Example 524, (1R,4s)-4-(2-Fluoro-4-methoxy-5-(((1S*,2R*,4R*)-4-methoxy-2-((3-((trifluoromethyl)sulfonyl)phenyl)carbamoyl)cyclopentyl)carbamoyl)phenoxy)-1-methylcyclohexane-1-carboxylic acid]	110%	0.025 µM	23 µL/min/1e6 cells	16 µL/min/mg	6.2 µL/min/1e6 cells	920 µM (≈ 621 µg/mL)	3.6 % free	
CCC(CC)[C@@H](C)NC(=O)[C@H]1[C@@H]2CC[C@@H](C2)[C@H]1NC(=O)c1cc(O[C@H]2CC[C@@](C)(C(=O)O)CC2)c(F)cc1OC (single isomer, unassigned) [Example 145, (1S,4s)-4-(5-(((1S,2R,3S,4R)-3-(((R*)-3-Ethylpentan-2-yl)carbamoyl)bicyclo[2.2.1]heptan-2-yl)carbamoyl)-2-fluoro-4-methoxyphenoxy)-1-methylcyclohexane-1-carboxylic acid]	95%	1.3 µM	53 µL/min/1e6 cells	180 µL/min/mg	14 µL/min/1e6 cells	870 µM (≈ 488 µg/mL)	0.81 % free	
COc1cc(F)c(Cc2cnn(CC(=O)O)c2)cc1C(=O)N[C@@H]1[C@H]2CC[C@H](C2)[C@@H]1C(=O)Nc1cccc(S(=O)(=O)C(F)(F)F)c1 [Example 220, 2-(4-(2-Fluoro-4-methoxy-5-(((1S,2R,3S,4R)-3-((3-((trifluoromethyl)sulfonyl)phenyl)carbamoyl)bicyclo[2.2.1]heptan-2-yl)carbamoyl)benzyl)-1H-pyrazol-1-yl)acetic acid]	109%	1.5 µM	14 µL/min/1e6 cells	10 µL/min/mg	7.2 µL/min/1e6 cells	940 µM (≈ 613 µg/mL)	0.95 % free	
CC1(CNC(=O)[C@H]2[C@H]3CC[C@H](C3)[C@H]2NC(=O)c2cc(O[C@H]3CC[C@@](C)(C(=O)O)CC3)c(C#N)cc2F)CCC1 [Example 413]	107%		21 µL/min/1e6 cells	9.3 µL/min/mg	4.5 µL/min/1e6 cells	820 µM (≈ 443 µg/mL)	1.5 % free	0.016 µM
COc1cc(F)c(-c2ccc(CCC(=O)O)nn2)cc1C(=O)N[C@@H]1[C@H]2CC[C@H](C2)[C@@H]1C(=O)Nc1cccc(S(=O)(=O)C(F)(F)F)c1 [Example 245]	104%	0.64 µM	15 µL/min/1e6 cells	45 µL/min/mg	13 µL/min/1e6 cells	980 µM (≈ 651 µg/mL)	5 % free	
COc1cc(F)c(-c2ccc(F)c(C(=O)O)c2)cc1C(=O)N[C@H]1[C@@H](C(=O)Nc2cccc(S(=O)(=O)C(F)(F)F)c2)[C@@H]2C=C[C@H]1C2 (racemic) [Example 231]	112%	0.48 µM	13 µL/min/1e6 cells	< 3 µL/min/mg	7.7 µL/min/1e6 cells	17 µM (≈ 11.1 µg/mL)	<0.31 % free	
COc1cc(F)c(-c2ncc(CCC(=O)O)s2)cc1C(=O)N[C@@H]1[C@H]2CC[C@H](C2)[C@@H]1C(=O)Nc1cccc(S(=O)(=O)C(F)(F)F)c1 [Example 243]	96%	0.099 µM	110 µL/min/1e6 cells	58 µL/min/mg	26 µL/min/1e6 cells	900 µM (≈ 603 µg/mL)	2.2 % free	
COc1cc(F)c(O[C@H]2CC[C@@](C)(C(=O)O)CC2)cc1C(=O)N[C@@H]1[C@H]2CC[C@H](C2)[C@@H]1C(=O)N[C@@H]1CCN(S(=O)(=O)C(F)(F)F)C1 [Example 605]	106%	0.079 µM	12 µL/min/1e6 cells	25 µL/min/mg	4.3 µL/min/1e6 cells	890 µM (≈ 591 µg/mL)	8.6 % free	
COc1cc(F)c(O[C@H]2CC[C@@H](C(N)=O)CC2)cc1C(=O)N[C@@H]1[C@H]2CC[C@H](C2)[C@@H]1C(=O)Nc1ccc(F)c(C(F)(F)F)c1 [Example 500, (1R,2S,3R,4S)-3-(5-(((1s,4S)-4-Carbamoylcyclohexyl)oxy)-4-fluoro-2-methoxybenzamido)-N-(4-fluoro-3-(trifluoromethyl)phenyl)bicyclo[2.2.1]heptane-2-carboxamide]	110%	0.064 µM	98 µL/min/1e6 cells	> 300 µL/min/mg	45 µL/min/1e6 cells	8 µM (≈ 4.88 µg/mL)	0.44 % free	
COc1cc(F)c(-c2ccc(C(=O)O)cc2)cc1C(=O)N[C@H]1[C@@H]2CC[C@@H](C2)[C@H]1C(=O)Nc1ccc(F)c(C(F)(F)F)c1 (single isomer, unassigned) [Example 591]	111%		28 µL/min/1e6 cells	19 µL/min/mg	140 µL/min/1e6 cells	> 1000 µM	<0.36 % free	
COc1cc(F)c(O[C@H]2CC[C@@H](C(=O)O)CC2)cc1C(=O)N[C@@H]1[C@@H]2CC[C@@H](C2)[C@@H]1C(=O)Nc1cccc(S(F)(F)(F)(F)F)c1 [Example 509, (1S,4s)-4-(2-Fluoro-4-methoxy-5-(((1R,2R,3S,4S)-3-((3-(pentafluoro-A6-sulfaneyl)phenyl)carbamoyl)bicyclo[2.2.1]heptan-2-yl)carbamoyl)phenoxy)cyclohexane-1-carboxylic acid]	125%	0.013 µM	7 µL/min/1e6 cells	9.4 µL/min/mg	5 µL/min/1e6 cells	1000 µM (≈ 651 µg/mL)	<0.070 % free	
COc1cc(C#N)c(O[C@H]2CC[C@@](C)(C(=O)O)CC2)cc1C(=O)N[C@@H]1CCC[C@@H]1C(=O)NCC1(C)CCC1 [Example 360]	101%	0.1 µM	17 µL/min/1e6 cells	8.4 µL/min/mg	3.6 µL/min/1e6 cells	> 1000 µM	15 % free	
COc1cc(F)c(-c2ccc(C(N)=O)cc2)cc1C(=O)N[C@H]1[C@@H](C(=O)Nc2cccc(S(=O)(=O)C(F)(F)F)c2)[C@@H]2C=C[C@H]1C2 [Example 270, 6-Fluoro-4-methoxy-N3-((1R,2R,3S,4S)-3-((3-((trifluoromethyl)sulfonyl)phenyl)carbamoyl)bicyclo[2.2.1]hept-5-en-2-yl)-[1,1′-biphenyl]-3,4′-dicarboxamide]	107%	0.12 µM	38 µL/min/1e6 cells	120 µL/min/mg	32 µL/min/1e6 cells	2 µM (≈ 1.26 µg/mL)	<0.26 % free	
COc1cc(F)c(-c2ccn(CCC(=O)O)c(=O)c2)cc1C(=O)N[C@@H]1[C@H]2CC[C@H](C2)[C@@H]1C(=O)Nc1cccc(S(=O)(=O)C(F)(F)F)c1 [Example 249]	113%	0.32 µM	15 µL/min/1e6 cells	43 µL/min/mg	11 µL/min/1e6 cells	190 µM (≈ 129 µg/mL)	3.4 % free	
